# In patent publication US8198330B2, “Therapeutic or prophylactic agent for diabetes, obesity, dyslipidemia or metabolic syndrome comprising benzylamine derivative or pharmaceutically acceptable acid addition salt thereof” (Toray Industries, Inc., priority 2008, dated 2012):
# Key:
# KK/Ay mice = assay: Efficacy in Type 2 diabetes-model mice (KK/Ay mice); assay type: in vivo, mouse
# Procedure: KK/Ay male mice of 5 weeks of age (CLEA Japan, Inc.) were purchased; a feeding stuff for growth CMF (Oriental Yeast) was provided since the day of arrival; and mice after growth for 3 weeks or longer were used. The compound of Example 1 was diluted to 2 mg/mL, as it is dissolved in physiological saline, and the solution was administered subcutaneously in an amount of 5 mL/kg, by using a disposable syringe (Terumo) and a 26G injection needle (Terumo). Physiological saline was administered to the mice in the vehicle group. The solution was administered once a day from the day of first administration (day 0) to day 13, and the tail vein was cut open with a knife (disposable scalpel, FEATHER) and the blood sugar was determined with a simplified blood sugar analyzer (MediSense Precision Xceed, Abotto Japan). Statistical treatment of the individual data obtained was carried out by a two-group test (unpaired t-test).
# anesthetized dog = assay: Effect on electrocardiogram of anesthetized dog; assay type: in vivo; details: for QTc: Fridericia
# Procedure: A male beagle and a female beagle of 11 months of age were used in the test. A beagle was anesthetized by intravenous administration of thiopental sodium at 25 mg/kg, and fixed at the dorsal position under anesthesia by isoflurane inhalation with oxygen-nitrous oxide gas (1:1). Artificial respiration was carried out under the condition of 20 mL/kg and 15 times/minute. In measurement of the electrocardiogram, bipolar extremity leads (I, II and III) and augmented unipolar extremity leads (aVR, aVL and aVF) were recorded and QT interval determined by using an electrocardiogram analyzer for animals (α6000AX-D, Fukuda M-E Kogyo Co., Ltd.), as needle electrodes were placed on four extremities.
# The QTc value was calculated according to the Fridericia's formula: QTc=QT/^3√{square root over ( )}(R−R). For observation of arrhythmia in electrocardiographic waveform during test, compression electrocardiogram was printed out from the small memory card by using a long-term electrocardiogram analyzer (HS1000 system, Fukuda M-E Kogyo Co., Ltd.). The samples of the compound of Example 1 were prepared by dissolving the compound in physiological saline at concentrations of 12 mg/mL, 4 mg/mL and 1.2 mg/mL. After confirmation of stabilization of the electrocardiogram, the sample was administered through a needle (22G) previously placed in the side forearm subcutaneous vein, by using an automatic injector (Harvard digital infusion pump MODEL-22, HARVARD […]) over a period of 10 minutes.
# First, vehicle (physiological saline) was administered in an amount of 0.5 mL/kg and then, after 35 minutes, 1.2 mg/mL physiological saline solution of the compound of Example 1 was administered in an amount of 0.5 mL/kg. Additionally, 4 mg/mL or 12 mg/mL physiological saline solution of the compound of Example 1 was administered in an amount of 0.5 mL/kg at an interval of 65 minutes after administration. The QT interval and the QTc value were measured, in each administration above, 5 minutes before administration, immediately before start of administration, as well as 5, 10, 15 and 30 minutes after start of administration. Thus, the measured value 30 or 60 minutes after start of previous administration corresponds to the value 5 minutes before start of administration for the following application.
# [1] = Individual 1 (male), 0.6 mg/kg/10 min i.v., 0 min (immediately before start of administration)
# [2] = Individual 1 (male), 0.6 mg/kg/10 min i.v., 5 min after start of administration
# [3] = Individual 1 (male), 0.6 mg/kg/10 min i.v., 10 min after start of administration
# [4] = Individual 1 (male), 0.6 mg/kg/10 min i.v., 15 min after start of administration
# [5] = Individual 1 (male), 0.6 mg/kg/10 min i.v., 30 min after start of administration
# [6] = Individual 1 (male), 0.6 mg/kg/10 min i.v., 45 min after start of administration
# [7] = Individual 1 (male), 0.6 mg/kg/10 min i.v., 60 min after start of administration
# [8] = Individual 1 (male), 2 mg/kg/10 min i.v., 0 min (immediately before start of administration)
# [9] = Individual 1 (male), 2 mg/kg/10 min i.v., 5 min after start of administration
# [10] = Individual 1 (male), 2 mg/kg/10 min i.v., 10 min after start of administration
# [11] = Individual 1 (male), 2 mg/kg/10 min i.v., 15 min after start of administration
# [12] = Individual 1 (male), 2 mg/kg/10 min i.v., 30 min after start of administration
# [13] = Individual 1 (male), 2 mg/kg/10 min i.v., 45 min after start of administration
# [14] = Individual 1 (male), 2 mg/kg/10 min i.v., 60 min after start of administration
# [15] = Individual 1 (male), 6 mg/kg/10 min i.v., 0 min (immediately before start of administration)
# [16] = Individual 1 (male), 6 mg/kg/10 min i.v., 5 min after start of administration
# [17] = Individual 1 (male), 6 mg/kg/10 min i.v., 10 min after start of administration
# [18] = Individual 1 (male), 6 mg/kg/10 min i.v., 15 min after start of administration
# [19] = Individual 1 (male), 6 mg/kg/10 min i.v., 30 min after start of administration
# [20] = Individual 1 (male), 6 mg/kg/10 min i.v., 45 min after start of administration
# [21] = Individual 1 (male), 6 mg/kg/10 min i.v., 60 min after start of administration
# [22] = Individual 2 (female), 0.6 mg/kg/10 min i.v., 0 min (immediately before start of administration)
# [23] = Individual 2 (female), 0.6 mg/kg/10 min i.v., 5 min after start of administration
# [24] = Individual 2 (female), 0.6 mg/kg/10 min i.v., 10 min after start of administration
# [25] = Individual 2 (female), 0.6 mg/kg/10 min i.v., 15 min after start of administration
# [26] = Individual 2 (female), 0.6 mg/kg/10 min i.v., 30 min after start of administration
# [27] = Individual 2 (female), 0.6 mg/kg/10 min i.v., 45 min after start of administration
# [28] = Individual 2 (female), 0.6 mg/kg/10 min i.v., 60 min after start of administration
# [29] = Individual 2 (female), 2 mg/kg/10 min i.v., 0 min (immediately before start of administration)
# [30] = Individual 2 (female), 2 mg/kg/10 min i.v., 5 min after start of administration
# [31] = Individual 2 (female), 2 mg/kg/10 min i.v., 10 min after start of administration
# [32] = Individual 2 (female), 2 mg/kg/10 min i.v., 15 min after start of administration
# [33] = Individual 2 (female), 2 mg/kg/10 min i.v., 30 min after start of administration
# [34] = Individual 2 (female), 2 mg/kg/10 min i.v., 45 min after start of administration
# [35] = Individual 2 (female), 2 mg/kg/10 min i.v., 60 min after start of administration
# [36] = Individual 2 (female), 6 mg/kg/10 min i.v., 0 min (immediately before start of administration)
# [37] = Individual 2 (female), 6 mg/kg/10 min i.v., 5 min after start of administration
# [38] = Individual 2 (female), 6 mg/kg/10 min i.v., 10 min after start of administration
# [39] = Individual 2 (female), 6 mg/kg/10 min i.v., 15 min after start of administration
# [40] = Individual 2 (female), 6 mg/kg/10 min i.v., 30 min after start of administration
# [41] = Individual 2 (female), 6 mg/kg/10 min i.v., 45 min after start of administration
# [42] = Individual 2 (female), 6 mg/kg/10 min i.v., 60 min after start of administration
# [43] = anesthetized beagle, i.v. 0.6, 2 and 6 mg/kg/10 min
smiles,measurement,setting,value
"COc1cc(CN[C@@H](C)[C@H](O)c2ccc(O)c(NS(C)(=O)=O)c2)cc(OC)c1 [Example 1, N-(5-((1R,2S)-2-(3,5-Dimethoxybenzylamino)-1-hydroxypropyl)-2-hydroxyphenyl)methanesulfonamide]",blood sugar versus solvent group,KK/Ay mice,lowered the blood sugar statistically significantly
same,Blood sugar,"KK/Ay mice; 10 mg/kg s.c. once a day, day 0 to day 13",336 ± 33 mg/dL
same,QT interval,anesthetized dog; [1],241 ms
same,QTc,anesthetized dog; [1],303 ms
same,QT interval,anesthetized dog; [2],228 ms
same,QTc,anesthetized dog; [2],299 ms
same,QT interval,anesthetized dog; [3],210 ms
same,QTc,anesthetized dog; [3],287 ms
same,QT interval,anesthetized dog; [4],205 ms
same,QTc,anesthetized dog; [4],280 ms
same,QT interval,anesthetized dog; [5],213 ms
same,QTc,anesthetized dog; [5],290 ms
same,QT interval,anesthetized dog; [6],220 ms
same,QTc,anesthetized dog; [6],296 ms
same,QT interval,anesthetized dog; [7],221 ms
same,QTc,anesthetized dog; [7],294 ms
same,QT interval,anesthetized dog; [8],218 ms
same,QTc,anesthetized dog; [8],293 ms
same,QT interval,anesthetized dog; [9],203 ms
same,QTc,anesthetized dog; [9],283 ms
same,QT interval,anesthetized dog; [10],203 ms
same,QTc,anesthetized dog; [10],283 ms
same,QT interval,anesthetized dog; [11],213 ms
same,QTc,anesthetized dog; [11],294 ms
same,QT interval,anesthetized dog; [12],218 ms
same,QTc,anesthetized dog; [12],297 ms
same,QT interval,anesthetized dog; [13],221 ms
same,QTc,anesthetized dog; [13],299 ms
same,QT interval,anesthetized dog; [14],225 ms
same,QTc,anesthetized dog; [14],304 ms
same,QT interval,anesthetized dog; [15],220 ms
same,QTc,anesthetized dog; [15],296 ms
same,QT interval,anesthetized dog; [16],210 ms
same,QTc,anesthetized dog; [16],292 ms
same,QT interval,anesthetized dog; [17],211 ms
same,QTc,anesthetized dog; [17],294 ms
same,QT interval,anesthetized dog; [18],210 ms
same,QTc,anesthetized dog; [18],291 ms
same,QT interval,anesthetized dog; [19],211 ms
same,QTc,anesthetized dog; [19],291 ms
same,QT interval,anesthetized dog; [20],235 ms
same,QTc,anesthetized dog; [20],320 ms
same,QT interval,anesthetized dog; [21],226 ms
same,QTc,anesthetized dog; [21],305 ms
same,QT interval,anesthetized dog; [22],240 ms
same,QTc,anesthetized dog; [22],293 ms
same,QT interval,anesthetized dog; [23],243 ms
same,QTc,anesthetized dog; [23],315 ms
same,QT interval,anesthetized dog; [24],236 ms
same,QTc,anesthetized dog; [24],310 ms
same,QT interval,anesthetized dog; [25],223 ms
same,QTc,anesthetized dog; [25],296 ms
same,QT interval,anesthetized dog; [26],218 ms
same,QTc,anesthetized dog; [26],297 ms
same,QT interval,anesthetized dog; [27],211 ms
same,QTc,anesthetized dog; [27],288 ms
same,QT interval,anesthetized dog; [28],213 ms
same,QTc,anesthetized dog; [28],292 ms
same,QT interval,anesthetized dog; [29],215 ms
same,QTc,anesthetized dog; [29],293 ms
same,QT interval,anesthetized dog; [30],210 ms
same,QTc,anesthetized dog; [30],292 ms
same,QT interval,anesthetized dog; [31],210 ms
same,QTc,anesthetized dog; [31],289 ms
same,QT interval,anesthetized dog; [32],210 ms
same,QTc,anesthetized dog; [32],288 ms
same,QT interval,anesthetized dog; [33],225 ms
same,QTc,anesthetized dog; [33],303 ms
same,QT interval,anesthetized dog; [34],220 ms
same,QTc,anesthetized dog; [34],298 ms
same,QT interval,anesthetized dog; [35],221 ms
same,QTc,anesthetized dog; [35],299 ms
same,QT interval,anesthetized dog; [36],220 ms
same,QTc,anesthetized dog; [36],296 ms
same,QT interval,anesthetized dog; [37],215 ms
same,QTc,anesthetized dog; [37],293 ms
same,QT interval,anesthetized dog; [38],211 ms
same,QTc,anesthetized dog; [38],289 ms
same,QT interval,anesthetized dog; [39],215 ms
same,QTc,anesthetized dog; [39],292 ms
same,QT interval,anesthetized dog; [40],213 ms
same,QTc,anesthetized dog; [40],289 ms
same,QT interval,anesthetized dog; [41],226 ms
same,QTc,anesthetized dog; [41],303 ms
same,QT interval,anesthetized dog; [42],220 ms
same,QTc,anesthetized dog; [42],294 ms
same,arrhythmia in electrocardiographic waveform,anesthetized dog; [43],no arrhythmia observed
same,prolongation of the QT interval,anesthetized dog; [43],did not cause prolongation of the QT interval
